Reference: PubChem BioAssay (NCI)
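48-hour exposure; five concentrations; linearly interpolated endpoints. Abbreviation: GI50, concentration required for 50% inhibition of growth. TGI denotes the concentration required for complete inhibition of growth.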

Columns and labels:
Test in all cases: growth of human tumour cells (NCI), 48 h
[1] = test system: HS 578T breast
[2] = test system: UACC-257 melanoma
[3] = test system: IGROV1 ovarian
[4] = test system: NCI-H522 lung
[5] = test system: SF-268 CNS
[6] = test system: OVCAR-5 ovarian
[7] = test system: ACHN renal
[8] = test system: U251 CNS
[9] = test system: NCI-H226 lung
[10] = test system: HOP-92 NSCLC
[11] = test system: SR leukemia
[12] = test system: LOX IMVI melanoma
[13] = test system: OVCAR-4 ovarian
[14] = test system: SK-OV-3 ovarian
[15] = test system: SF-295 CNS
[16] = test system: SK-MEL-28 melanoma
[17] = test system: HCT-116 colon
[18] = test system: PC-3 prostate
[19] = test system: MOLT-4 leukemia
[20] = test system: SNB-75 CNS
[21] = test system: HT29 colon
[22] = test system: SW-620 colon
[23] = test system: M14 melanoma
[24] = test system: SK-MEL-5 melanoma
[25] = test system: CAKI-1 renal
[26] = test system: NCI/ADR-RES ovarian
[27] = test system: COLO 205 colon
[28] = test system: OVCAR-8 ovarian
[29] = test system: T-47D breast
[30] = test system: DU-145 prostate
[31] = test system: MCF7 breast
[32] = test system: OVCAR-3 ovarian
[33] = test system: SF-539 CNS
[34] = test system: EKVX NSCLC
[35] = test system: NCI-H460 lung
[36] = test system: 786-0 renal
[37] = test system: HCC-2998 colon
[38] = test system: BT-549 breast
[39] = test system: HOP-62 NSCLC
[40] = test system: K-562 leukemia
[41] = test system: MALME-3M melanoma
[42] = test system: MDA-MB-231 breast
[43] = test system: SK-MEL-2 melanoma
[44] = test system: HL-60(TB) leukemia
[45] = test system: UACC-62 melanoma
[46] = test system: TK-10 renal
[47] = test system: UO-31 renal
[48] = test system: MDA-MB-435
[49] = test system: SN12C renal
[50] = test system: NCI-H23 lung
[51] = test system: A549 NSCLC
[52] = test system: KM12 colon
[53] = test system: RPMI-8226 leukemia
[54] = test system: RXF 393 renal
[55] = test system: SNB-19 CNS
[56] = test system: HCT-15 colon
[57] = test system: A498 renal
[58] = test system: CCRF-CEM leukemia

`COc1cc2cc(Oc3ccc(NC(=O)Nc4ccc(Cl)c(C(F)(F)F)c4)cc3)c(C)nc2cc1OC` was tested, and the GI50 [1] was 720 nM, the TGI [1] was 2310 nM and the GI50 [2] was 710 nM. For the same compound, the TGI [2] was 2360 nM, the GI50 [3] was 2340 nM and the TGI [3] was 9.83 µM. It also gave a GI50 [4] of 773 nM, a TGI [4] of 2650 nM and a GI50 [5] of 1550 nM. For the same compound, the TGI [5] was 6.34 µM, the GI50 [6] was 1930 nM and the TGI [6] was 6.22 µM. For the same compound, the GI50 [7] was 1070 nM, the TGI [7] was 4 µM and the GI50 [8] was 1030 nM. For the same compound, the TGI [8] was 3.78 µM, the GI50 [9] was 1270 nM and the TGI [9] was 5.01 µM. For the same compound, the GI50 [10] was 682 nM, the TGI [10] was 2050 nM and the GI50 [11] was 831 nM. It also gave a TGI [11] of 2650 nM, a GI50 [12] of 1220 nM and a TGI [12] of 4.16 µM. It also gave a GI50 [13] of 1370 nM, a TGI [13] of 6.1 µM and a GI50 [14] of 1350 nM. It also gave a TGI [14] of 5.79 µM, a GI50 [15] of 899 nM and a TGI [15] of 2910 nM. The GI50 [16] was 1410 nM, the TGI [16] was 5.45 µM and the GI50 [17] was 994 nM. For the same compound, the TGI [17] was 3.84 µM, the GI50 [18] was 781 nM and the TGI [18] was 2960 nM. It also gave a GI50 [19] of 1140 nM, a TGI [19] of 5.49 µM and a GI50 [20] of 1030 nM. For the same compound, the TGI [20] was 4.9 µM, the GI50 [21] was 1200 nM and the TGI [21] was 3.98 µM. It also gave a GI50 [22] of 1250 nM, a TGI [22] of 4.57 µM and a GI50 [23] of 1250 nM. It also gave a TGI [23] of 5.25 µM, a GI50 [24] of 793 nM and a TGI [24] of 2170 nM. It also gave a GI50 [25] of 782 nM, a TGI [25] of 2540 nM and a GI50 [26] of 1060 nM. It also gave a TGI [26] of 4.91 µM, a GI50 [27] of 660 nM and a TGI [27] of 1310 nM. The GI50 [28] was 1040 nM, the TGI [28] was 4.55 µM and the GI50 [29] was 1210 nM. It also gave a TGI [29] of 7.9 µM, a GI50 [30] of 1240 nM and a TGI [30] of 5.11 µM. For the same compound, the GI50 [31] was 1080 nM, the TGI [31] was 3.88 µM and the GI50 [32] was 1160 nM. For the same compound, the TGI [32] was 4.45 µM, the GI50 [33] was 1960 nM and the TGI [33] was 8.39 µM. For the same compound, the GI50 [34] was 1010 nM, the TGI [34] was 3.75 µM and the GI50 [35] was 1070 nM. For the same compound, the TGI [35] was 3.57 µM, the GI50 [36] was 1170 nM and the TGI [36] was 4.96 µM. It also gave a GI50 [37] of 1770 nM, a TGI [37] of 5.48 µM and a GI50 [38] of 981 nM. The TGI [38] was 4.59 µM, the GI50 [39] was 1300 nM and the TGI [39] was 5.32 µM. The GI50 [40] was 1110 nM, the TGI [40] was 4.81 µM and the GI50 [41] was 1330 nM. It also gave a TGI [41] of 5.71 µM, a GI50 [42] of 681 nM and a TGI [42] of 1840 nM. For the same compound, the GI50 [43] was 799 nM, the TGI [43] was 1940 nM and the GI50 [44] was 1130 nM. The TGI [44] was 3.12 µM, the GI50 [45] was 1240 nM and the TGI [45] was 6.01 µM. It also gave a GI50 [46] of 1320 nM, a TGI [46] of 6.19 µM and a GI50 [47] of 924 nM. The TGI [47] was 2380 nM, the GI50 [48] was 1030 nM and the TGI [48] was 4.71 µM. The GI50 [49] was 1310 nM, the TGI [49] was 6.12 µM and the GI50 [50] was 991 nM. For the same compound, the TGI [50] was 3.79 µM, the TGI [51] was 4.16 µM and the GI50 [52] was 1070 nM. For the same compound, the TGI [52] was 3.85 µM, the GI50 [53] was 635 nM and the TGI [53] was 1650 nM. For the same compound, the GI50 [54] was 1330 nM, the TGI [54] was 4.21 µM and the GI50 [55] was 1410 nM. For the same compound, the TGI [55] was 5.31 µM, the GI50 [56] was 1150 nM and the TGI [56] was 4.86 µM. The GI50 [57] was 754 nM, the TGI [57] was 3.32 µM and the GI50 [58] was 1010 nM. For the same compound, the TGI [58] was 3.09 µM.
